Source: patent US20050031670A1, “Weight reduction or weight controlling composition” (priority 2001, published 2005)
Counter-ions that a name gives are not always drawn.

How the values were obtained:
Obese patients (BMI≧30) [1] = experiment: Weight loss in obese patients given bupropion without food component or dietary intervention (Example 2, comparative); assay type: in vivo, human; settings: 300 mg bupropion (150 mg twice a day), no food component nor dietary counseling
Experimental: Example 2 (Comparative): An analysis was conducted of obese patients (BMI≧30) who were given 300 mg of bupropion (150 mg twice a day) in the absence of the food component of the invention nor any other dietary counseling or intervention. Weight loss was negligible, the average weight loss per patient in the 300 mg study was 2.4 Kg after 12 months.

Obese patients (BMI≧30) [2] = experiment: Weight loss in obese patients given bupropion plus low calorie nutritional beverage (Example 3, invention); assay type: in vivo, human; settings: 600 Kcal deficit diet, end of 6 months
Experimental: Example 3 (Invention): Obese patients (BMI≧30) were given 300 mg (N=110) or 400 mg (N=105) of bupropion and a low calorie, nutritional beverage (Slim Fast™, 11.5 oz.) for two meals per day for 6 months to achieve a 600 Kcal deficit diet. That is, each patient was given 150 or 200 mg of bupropion HCL sustained release, respectively, in a nutritional beverage (a food component of the invention) twice a day. At the end of the end of 6 months, the average weight loss was 7.2 kg and 10.1 kg for the 300 mg and 400 mg groups, respectively.

| SMILES | Weight loss (in words) (Obese patients (BMI≧30) [1]) | average weight loss per patient (Obese patients (BMI≧30) [1]; after 12 months) | average weight loss (Obese patients (BMI≧30) [2]; 300 mg group (150 mg twice a day) in Slim Fast 11.5 oz for two meals per day) | average weight loss (Obese patients (BMI≧30) [2]; 400 mg group (200 mg twice a day) in Slim Fast 11.5 oz for two meals per day) |
| --- | --- | --- | --- | --- |
| CC(NC(C)(C)C)C(=O)c1cccc(Cl)c1 (racemic) [bupropion, (±)-1-(3-chlorophenyl)-2-[(1,1-dimethyl)amino]-1-propanone hydrochloride] | negligible | 2.4 kg |  |  |
| CC(NC(C)(C)C)C(=O)c1cccc(Cl)c1 (single isomer, unassigned; (+)) [bupropion HCL sustained release, (+)-2-(tert-butylamino)-3′-chloropropiophenome hydrochloride] |  |  | 7.2 kg | 10.1 kg |
